Assay results: US20060069132A1, “Azolecarboxamide herbicides” (priority 2004, published 2006)
Where two headings read alike, the source gives them in different places.

Assays:
giant foxtail = experiment: Test A pre-/postemergence herbicide test; type: in vivo, Setaria faberi; conditions: for pest or weed control at 500 g/ha / pest or weed control at 2000 g/ha: Setaria faberi, 240 h
Outline: (§1)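 Seeds sown in sandy loam received a preemergence directed soil spray of compound in non-phytotoxic solvent with surfactant; postemergence plants (2–10 cm, one- to two-leaf stage) were sprayed to runoff at the same time. After ~10 days in greenhouse, injury was rated visually versus untreated controls (0 = no effect, 100 = complete control).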

redroot pigweed = experiment: Test A pre-/postemergence herbicide test; type: in vivo, Amaranthus retroflexus; conditions: for pest or weed control at 500 g/ha / pest or weed control at 2000 g/ha: Amaranthus retroflexus, 240 h
Outline: as §1

barnyardgrass = experiment: Test B pre-/postemergence herbicide test; type: in vivo, Echinochloa crus-galli; conditions: for Plant response rating, Barnyardgrass: preemergence; for Barnyardgrass plant response rating: postemergence, visual rating
Outline: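 Formulation: non-phytotoxic solvent mix with surfactant. Timing: preemergence on seed and postemergence on 2–18 cm plants, applied concurrently. Readout after 13–15 d greenhouse: visual 0–100 control rating against controls.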

ducksalad = experiment: Test B flooded paddy test; type: in vivo, Heteranthera limosa; conditions: 1000 g ai/ha, visual rating, scale 0 to 100 (0 no effect, 100 complete control), 13 to 15 days
Outline: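 Scale 0–100: zero equals no visible effect, 100 complete control, judged by eye relative to controls. Timing: 13 to 15 days in greenhouse post-treatment. Growth stage at spraying: two leaves (paddy) or one to four leaves, 2–18 cm (postemergence).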

Surinam grass = experiment: Test C pre-/postemergence herbicide test; type: in vivo, Urochloa decumbens
Outline: (§2)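 Seeds were planted and sprayed preemergence with test chemicals in a non-phytotoxic solvent mixture containing surfactant; postemergence treatments went onto plants 2 to 18 cm tall (1- to 4-leaf stage). After 12 to 14 days in a greenhouse, injury was rated visually against untreated controls on a 0–100 scale.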

large crabgrass = experiment: Test C pre-/postemergence herbicide test; type: in vivo, Digitaria sanguinalis
Outline: as §2

lambsquarters = experiment: Test C pre-/postemergence herbicide test; type: in vivo, Chenopodium album; conditions: for Plant response rating (0 = no effect, 100 = complete control), Lambsquarters: 62 g ai/ha
Outline: as §2

yellow nutsedge = experiment: Test C pre-/postemergence herbicide test; type: in vivo, Cyperus esculentus
Outline: as §2

common ragweed = experiment: Test C pre-/postemergence herbicide test; type: in vivo, Ambrosia elatior; parameters: key to Plant response rating, Ragweed: 0 = no effect, 100 = complete control
Outline: as §2

[1] = Postemergence, 500 g ai/ha, 0 to 100 scale, 0 no effect, 100 complete control
[2] = Postemergence, 2000 g ai/ha, 0 to 100 scale, 0 no effect, 100 complete control
[3] = Preemergence, 2000 g ai/ha, visual rating, 0 to 100 scale (0 no effect, 100 complete control)
[4] = 125 g ai/ha, scale 0 (no effect) to 100 (complete control), visual, 12 to 14 days, preemergence
[5] = Postemergence, 250 g ai/ha, scale 0 to 100, 0 no effect, 100 complete control
[6] = postemergence, 125 g ai/ha, scale 0 to 100
[7] = postemergence, 62 g ai/ha, scale 0 to 100
[8] = Preemergence, 500 g ai/ha, scale 0 to 100, 0 no effect, 100 complete control

With `CCn1nc(C(C)(C)C)cc1C(=O)Nc1cccc(C#N)c1` [Compound 139] the “Foxtail, Giant plant response rating” value (giant foxtail; [1]) was 20, the “Plant response rating, Foxtail, Giant” value (giant foxtail; [2]) was 40 and the “Foxtail, Giant plant response rating” value (giant foxtail; Preemergence, 500 g ai/ha, visual rating, 0 to 100 scale (0 no effect, 100 complete control)) was 60. For the same compound, the “Foxtail, Giant plant response rating” value (giant foxtail; [3]) was 75, the “Pigweed plant response rating” value (redroot pigweed; [1]) was 75 and the “Plant response rating, Pigweed” value (redroot pigweed; [2]) was 100. The “Pigweed plant response rating” value (redroot pigweed; [3]) was 100, the “Pigweed plant response rating” value (redroot pigweed; preemergence, 500 g ai/ha, visual injury, 0 to 100 scale (0 no effect, 100 complete control)) was 100 and the “Plant response rating, Barnyardgrass” value (barnyardgrass; 500 g ai/ha, visual rating 0-100, 0 no effect, 100 complete control) was 90. The “Barnyardgrass plant response rating” value (barnyardgrass; 125 g ai/ha, scale 0 (no effect) to 100 (complete control)) was 10, the “Barnyardgrass plant response rating” value (barnyardgrass; 500 g ai/ha, scale 0 (no effect) to 100 (complete control)) was 10 and the “Plant response rating, Barnyardgrass” value (barnyardgrass; 125 g ai/ha, 0 to 100 scale, 0 is no effect, 100 is complete control) was 80. For the same compound, the “Ducksalad plant response rating” value (ducksalad) was 80, the “Plant response rating (0 = no effect, 100 = complete control), Surinam Grass” value (Surinam grass; 62 g ai/ha, preemergence) was 0 and the “Plant response rating, Surinam Grass” value (Surinam grass; [4]) was 20. For the same compound, the “Plant response rating, Surinam Grass” value (Surinam grass; [5]) was 0, the “Plant response rating, Surinam Grass” value (Surinam grass; [6]) was 0 and the “Plant response rating, Surinam Grass” value (Surinam grass; [7]) was 0. The “Plant response rating (0 = no effect, 100 = complete control), Crabgrass, Large” value (large crabgrass; 62 g ai/ha, preemergence) was 40, the “Plant response rating, Crabgrass, Large” value (large crabgrass; [4]) was 100 and the “Plant response rating, Crabgrass, Large” value (large crabgrass; 250 g ai/ha, scale 0 to 100 (0 no effect, 100 complete control), visual, 12 to 14 days, preemergence) was 100. For the same compound, the “Plant response rating, Crabgrass, Large” value (large crabgrass; [5]) was 0, the “Plant response rating, Crabgrass, Large” value (large crabgrass; [6]) was 0 and the “Plant response rating, Crabgrass, Large” value (large crabgrass; [7]) was 0. The “Plant response rating (0 = no effect, 100 = complete control), Lambsquarters” value (lambsquarters; preemergence) was 100, the “Plant response rating, Lambsquarters” value (lambsquarters; [4]) was 100 and the “Plant response rating, Nutsedge, Yellow” value (yellow nutsedge; 31 g ai/ha, scale 0 to 100, last section of Table C, preemergence) was 0. The “Plant response rating (0 = no effect, 100 = complete control), Nutsedge, Yellow” value (yellow nutsedge; 62 g ai/ha, preemergence) was 0, the “Plant response rating, Nutsedge, Yellow” value (yellow nutsedge; [4]) was 0 and the “Plant response rating, Nutsedge, Yellow” value (yellow nutsedge; [5]) was 0. For the same compound, the “Plant response rating, Nutsedge, Yellow” value (yellow nutsedge; [6]) was 0, the “Plant response rating, Nutsedge, Yellow” value (yellow nutsedge; [7]) was 0 and the “Plant response rating (0 = no effect, 100 = complete control), Ragweed” value (common ragweed; 62 g ai/ha, preemergence) was 50. The “Plant response rating, Ragweed” value (common ragweed; [4]) was 50, the “Plant response rating, Ragweed” value (common ragweed; [5]) was 45 and the “Plant response rating, Ragweed” value (common ragweed; [6]) was 45. The “Plant response rating, Ragweed” value (common ragweed; [7]) was 0.
`CCn1nc(C(C)(C)C)cc1C(=O)Nc1cc(C(=O)N(C)C)ccc1F` [Compound 6, N-[5-[(dimethylamino)carbonyl]-2-fluorophenyl]-3-(1,1-dimethylethyl)-1-ethyl-1H-pyrazole-5-carboxamide] was tested, and the pest or weed control at 500 g/ha (giant foxtail; post-emergence, Postemergence, 500 g ai/ha, 0 to 100 scale, 0 no effect, 100 complete control, read-out: Plant response rating, Foxtail, Giant) was 70%, the pest or weed control at 2000 g/ha (giant foxtail; post-emergence, Postemergence, 2000 g ai/ha, 0 to 100 scale, 0 no effect, 100 complete control, read-out: Plant response rating, Foxtail, Giant) was 70% and the pest or weed control at 500 g/ha (giant foxtail; pre-emergence, Preemergence, 500 g ai/ha, visual rating, 0 to 100 scale (0 no effect, 100 complete control), read-out: Foxtail, Giant plant response rating) was 100%. It also gave a pest or weed control at 2000 g/ha (giant foxtail; pre-emergence, Preemergence, 2000 g ai/ha, 0 to 100 scale, 0 no effect, 100 complete control, read-out: Foxtail, Giant plant response rating) of 100%, a pest or weed control at 500 g/ha (redroot pigweed; post-emergence, Postemergence, 500 g ai/ha, 0 to 100 scale, 0 no effect, 100 complete control, read-out: Plant response rating, Pigweed) of 100% and a pest or weed control at 2000 g/ha (redroot pigweed; post-emergence, Postemergence, 2000 g ai/ha, 0 to 100 scale, 0 no effect, 100 complete control, read-out: Plant response rating, Pigweed) of 100%. The pest or weed control at 500 g/ha (redroot pigweed; pre-emergence, Preemergence, 500 g ai/ha, visual rating, 0 to 100 scale (0 no effect, 100 complete control), read-out: Pigweed plant response rating) was 100%, the pest or weed control at 2000 g/ha (redroot pigweed; pre-emergence, Preemergence, 2000 g ai/ha, 0 to 100 scale, 0 no effect, 100 complete control, read-out: Pigweed plant response rating) was 100% and the pest or weed control at 125 g/ha (barnyardgrass; Echinochloa crus-galli, post-emergence, Postemergence, 125 g ai/ha, scale 0 (no effect) to 100 (complete control), read-out: Barnyardgrass plant response rating) was 0%. It also gave a pest or weed control at 500 g/ha (barnyardgrass; Echinochloa crus-galli, post-emergence, Postemergence, 500 g ai/ha, visual rating after 13 to 15 days, scale 0 (no effect) to 100 (complete control), read-out: Plant response rating, Barnyardgrass) of 80%, a pest or weed control at 500 g/ha (barnyardgrass; Echinochloa crus-galli, pre-emergence, Preemergence, 500 g ai/ha, scale 0 to 100, read-out: Barnyardgrass plant response rating) of 100% and a pest or weed control at 1000 g/ha (ducksalad; Heteranthera limosa, 336 h, read-out: Ducksalad plant response rating) of 90%. The “Plant response rating (0 = no effect, 100 = complete control), Surinam Grass” value (Surinam grass; 62 g ai/ha, preemergence) was 85, the “Surinam Grass plant response rating” value (Surinam grass; [8]) was 100 and the pest or weed control at 250 g/ha (Surinam grass; Urochloa decumbens, pre-emergence, 312 h, 250 g ai/ha, scale 0 to 100 (0 no effect, 100 complete control), visual, 12 to 14 days, read-out: Plant response rating, Surinam Grass) was 100%. The “Plant response rating (0 = no effect, 100 = complete control), Crabgrass, Large” value (large crabgrass; 62 g ai/ha, preemergence) was 75, the pest or weed control at 125 g/ha (large crabgrass; Digitaria sanguinalis, pre-emergence, 312 h, 125 g ai/ha, scale 0-100, read-out: Plant response rating, Crabgrass, Large) was 95% and the pest or weed control at 250 g/ha (large crabgrass; Digitaria sanguinalis, pre-emergence, 312 h, 250 g ai/ha, scale 0 to 100 (0 no effect, 100 complete control), visual, 12 to 14 days, read-out: Plant response rating, Crabgrass, Large) was 95%. For the same compound, the “Crabgrass, Large plant response rating” value (large crabgrass; [8]) was 100, the “Plant response rating (0 = no effect, 100 = complete control), Lambsquarters” value (lambsquarters; preemergence) was 100 and the pest or weed control at 125 g/ha (lambsquarters; Chenopodium album, pre-emergence, 125 g ai/ha, scale 0-100, read-out: Plant response rating, Lambsquarters) was 100%. The pest or weed control at 250 g/ha (lambsquarters; Chenopodium album, pre-emergence, 250 g ai/ha, scale 0 to 100 (0 no effect, 100 complete control), visual, 12 to 14 days, read-out: Plant response rating, Lambsquarters) was 100%, the “Lambsquarters plant response rating” value (lambsquarters; [8]) was 100 and the “Plant response rating (0 = no effect, 100 = complete control), Nutsedge, Yellow” value (yellow nutsedge; 62 g ai/ha, preemergence) was 50. The pest or weed control at 250 g/ha (yellow nutsedge; Cyperus, pre-emergence, 250 g ai/ha, scale 0 to 100 (0 no effect, 100 complete control), visual, 12 to 14 days, read-out: Plant response rating, Nutsedge, Yellow) was 80%, the “Nutsedge, Yellow plant response rating” value (yellow nutsedge; [8]) was 85 and the “Plant response rating (0 = no effect, 100 = complete control), Ragweed” value (common ragweed; 62 g ai/ha, preemergence) was 100. The pest or weed control at 250 g/ha (common ragweed; Ambrosia artemisiifolia, pre-emergence, 250 g ai/ha, scale 0 to 100 (0 no effect, 100 complete control), visual, 12 to 14 days, read-out: Plant response rating, Ragweed) was 100% and the “Ragweed plant response rating” value (common ragweed; [8]) was 100.
